One experiment deals with Factor Xa (Homo sapiens, UniProt P00742). The experiment is described as follows: Chromogenic kinetic enzyme assay, Factor Xa. In kind it is biochemical.
The next experiment addresses hepsin (Homo sapiens, UniProt P05981). The experiment is described as follows: Fluorogenic kinetic enzyme inhibitor assay, hepsin. The class given is biochemical.
The target of another experiment is TMPRSS2 (Homo sapiens, UniProt O15393, Q253D/R252D/R255K/S251D/S254D). The experiment can be described thus: Fluorogenic kinetic enzyme inhibitor assay, TMPRSS2. The class given is biochemical.
Chain of TMPRSS2 (O15393 109-492 S251D/R252D/Q253D/S254D/R255K limits assumed): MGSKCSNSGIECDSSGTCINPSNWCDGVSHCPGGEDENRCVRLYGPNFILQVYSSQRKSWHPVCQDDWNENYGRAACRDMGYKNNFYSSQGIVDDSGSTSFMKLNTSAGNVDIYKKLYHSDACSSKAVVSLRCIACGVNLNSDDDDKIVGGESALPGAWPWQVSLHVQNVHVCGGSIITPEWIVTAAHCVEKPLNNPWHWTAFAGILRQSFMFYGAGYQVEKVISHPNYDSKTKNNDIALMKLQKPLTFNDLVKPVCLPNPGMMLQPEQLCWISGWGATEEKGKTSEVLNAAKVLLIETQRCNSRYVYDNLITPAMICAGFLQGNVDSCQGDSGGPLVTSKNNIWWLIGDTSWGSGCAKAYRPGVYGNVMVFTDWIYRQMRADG
In the next experiment the target is thrombin (Homo sapiens, UniProt P00734). The experiment can be described thus: Chromogenic kinetic enzyme assay, thrombin. The class given is biochemical.
In another experiment the target is T1, matriptase (Homo sapiens, UniProt Q9Y5Y6).
T1 sequence (Q9Y5Y6 615-855): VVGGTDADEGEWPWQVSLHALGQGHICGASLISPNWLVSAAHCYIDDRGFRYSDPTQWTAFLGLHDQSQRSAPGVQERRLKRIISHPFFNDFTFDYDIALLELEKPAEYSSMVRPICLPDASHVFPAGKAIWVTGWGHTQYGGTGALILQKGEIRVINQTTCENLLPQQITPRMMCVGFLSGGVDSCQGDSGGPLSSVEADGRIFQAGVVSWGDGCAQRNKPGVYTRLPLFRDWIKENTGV
The experiment can be described thus: Fluorogenic kinetic enzyme inhibitor assay, matriptase. The class given is biochemical.

Experiment [1] has as its system chimeric VSV SARS-CoV-2 virus. The note with it: chimeric VSV virus.
The target of another experiment is T2, HGFA (Homo sapiens, UniProt Q04756).
T2 sequence (Q04756 373-655): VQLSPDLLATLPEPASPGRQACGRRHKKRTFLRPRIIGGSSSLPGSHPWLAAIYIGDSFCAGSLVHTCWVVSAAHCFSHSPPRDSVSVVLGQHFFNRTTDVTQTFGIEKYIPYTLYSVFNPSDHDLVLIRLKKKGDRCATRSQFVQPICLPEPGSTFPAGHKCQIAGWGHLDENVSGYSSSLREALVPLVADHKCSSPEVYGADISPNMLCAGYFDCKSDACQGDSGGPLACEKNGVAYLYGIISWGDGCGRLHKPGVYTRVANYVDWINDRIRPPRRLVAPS
The experiment is described as follows: Fluorogenic kinetic enzyme inhibitor assay, HGFA. In kind it is biochemical.

Experiment [2] deals with influenza A virus strain A/California/4/2009 (pdmH1N1). The conditions noted are these: for H1N1 titer Log fold reduction (1 μM): virus strain A/California/4/2009 (pdmH1N1, 72 h, 1 μM); for H1N1 titer Log fold reduction (10 μM): virus strain A/California/4/2009 (pdmH1N1, 72 h, 10 μM).

Chain of Factor Xa (P00742 235-488 limits assumed): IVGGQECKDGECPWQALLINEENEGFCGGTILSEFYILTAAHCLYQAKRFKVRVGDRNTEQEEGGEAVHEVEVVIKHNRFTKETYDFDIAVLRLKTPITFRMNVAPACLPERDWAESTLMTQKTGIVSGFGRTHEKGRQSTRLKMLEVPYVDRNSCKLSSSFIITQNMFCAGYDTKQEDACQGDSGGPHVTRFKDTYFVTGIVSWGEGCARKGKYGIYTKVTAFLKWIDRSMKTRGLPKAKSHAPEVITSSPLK
Chain of Factor Xa (P00742 41-179 partner limits assumed): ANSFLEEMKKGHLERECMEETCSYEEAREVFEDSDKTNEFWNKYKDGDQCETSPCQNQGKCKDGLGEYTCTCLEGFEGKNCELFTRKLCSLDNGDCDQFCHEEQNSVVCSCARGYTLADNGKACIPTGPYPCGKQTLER
Chain of hepsin (P05981 163-417 limits assumed): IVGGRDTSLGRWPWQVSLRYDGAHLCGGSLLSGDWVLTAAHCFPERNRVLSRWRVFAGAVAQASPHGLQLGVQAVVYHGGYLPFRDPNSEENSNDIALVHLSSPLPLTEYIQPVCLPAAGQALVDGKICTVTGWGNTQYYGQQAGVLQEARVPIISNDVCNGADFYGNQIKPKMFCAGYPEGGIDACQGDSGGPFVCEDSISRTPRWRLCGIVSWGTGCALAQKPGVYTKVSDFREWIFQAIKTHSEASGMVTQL
Chain of hepsin (P05981 45-162 partner limits assumed): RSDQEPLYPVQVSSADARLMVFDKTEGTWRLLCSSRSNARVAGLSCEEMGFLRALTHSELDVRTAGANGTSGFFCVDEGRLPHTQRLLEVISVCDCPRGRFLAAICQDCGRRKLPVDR

The term IC50 denotes the midpoint of a concentration-inhibition curve. One may read the EC50 as the concentration needed to bring the measured effect to its halfway point. As for `CC[C@H](C)[C@H](NC(C)=O)C(=O)N[C@@H](CCC(N)=O)C(=O)N[C@@H](Cc1ccccc1)C(=O)N[C@@H](CCCNC(=N)N)C(=O)c1nc2ccccc2s1` [MM3116, Ac-IQFR-kbt], the IC50 was 792 nM at Factor Xa; 0.14 nM at hepsin; 1.7 nM against TMPRSS2; > 20000 nM against thrombin; 0.92 nM at matriptase; 30 nM against HGFA. In experiment [1], this molecule came in with an EC50 of 3.6 nM.

Turning to `CC[C@H](C)[C@H](NC(C)=O)C(=O)N[C@@H](CCC(N)=O)C(=O)N[C@@H](CO)C(=O)N[C@@H](CCCNC(=N)N)C(=O)c1nc2ccccc2s1` [MM3177, Ac-IQSR-kbt], the IC50 against Factor Xa is 1730 nM; on hepsin it was 2.4 nM; against TMPRSS2, 4.5 nM; against thrombin it was > 20000 nM; on matriptase it was 1.3 nM; at HGFA, 19900 nM. The molecule also returned an EC50 in experiment [1] of 36 nM.

`CC[C@H](C)[C@H](NC(C)=O)C(=O)N[C@@H](CCC(N)=O)C(=O)N[C@@H](C)C(=O)N[C@@H](CCCNC(=N)N)C(=O)c1nc2ccccc2s1` [MM3178, Ac-IQAR-kbt]: the IC50 was 170 nM against Factor Xa; 1.3 nM against hepsin; 0.23 nM against TMPRSS2; > 20000 nM against thrombin; 0.1 nM against matriptase; > 20000 nM on HGFA. Besides, the “H1N1 Fold inhibition @ 0.1 μM” value in experiment [2] is recorded as 2. Besides, the “H1N1 Fold inhibition @ 1 μM” value in experiment [2] stood at 91. Besides, in experiment [2], the “H1N1 Fold inhibition @ 10 μM” value is 238. For the same molecule, the “H1N1 titer Log fold reduction (1 μM)” value in experiment [2] was 2.0. Also, in experiment [2], the “H1N1 titer Log fold reduction (10 μM)” value came to 2.4. In experiment [1], the EC50 turned out to be 11 nM.

`CC[C@H](C)[C@H](NC(C)=O)C(=O)N[C@@H](CCC(N)=O)C(=O)N[C@H](C(=O)N[C@@H](CCCNC(=N)N)C(=O)c1nc2ccccc2s1)C(C)C` [MM3180, Ac-IQVR-kbt] gave an IC50 against hepsin of 0.11 nM. In experiment [2], the “H1N1 Fold inhibition @ 0.1 μM” value came out at 2, the “H1N1 Fold inhibition @ 1 μM” value is reported as 135, the “H1N1 Fold inhibition @ 10 μM” value was found to be 359 and the “H1N1 titer Log fold reduction (1 μM)” value turned out to be 2.1. Besides, in experiment [2], the “H1N1 titer Log fold reduction (10 μM)” value came to 2.6. 0.03 nM corresponded to half-maximal inhibition against TMPRSS2 (IC50). Besides, the IC50 at thrombin was > 20000 nM. Moreover, on matriptase, half-maximal inhibition (IC50) required 0.76 nM. In addition, the EC50 in experiment [1] is 12 nM. For the same molecule, on HGFA, the IC50 was determined as 799 nM.

On to `CC[C@H](C)[C@H](NC(C)=O)C(=O)N[C@@H](CCC(N)=O)C(=O)N[C@H](C(=O)N[C@H](CCCNC(=N)N)C(=O)c1nc2ccccc2s1)C(C)C` [MM3180-1, Ac-IQVdR-kbt], for which the IC50 at Factor Xa was > 20000 nM; at hepsin it was 1.72 nM; on TMPRSS2 it was 2.89 nM; against thrombin, > 20000 nM; against matriptase, 22.9 nM; on HGFA, 14600 nM.

For the molecule `CC[C@H](C)[C@H](NC(C)=O)C(=O)N[C@@H](CCC(N)=O)C(=O)N[C@H](C(=O)N[C@@H](CCCNC(=N)N)C(=O)c1nc2ccccc2s1)[C@@H](C)O` [MM3186, Ac-IQTR-kbt], the half-maximal inhibitory concentration (IC50) at Factor Xa is > 20000 nM; on hepsin, 0.98 nM; at TMPRSS2 it was 0.17 nM; against thrombin it was > 20000 nM; on matriptase, 16 nM; on HGFA, 18400 nM. In experiment [1], this molecule gave an EC50 of 19 nM.

As to `CC[C@H](C)[C@H](NC(C)=O)C(=O)N[C@@H](CCC(N)=O)C(=O)N[C@@H](Cc1c[nH]c2ccccc12)C(=O)N[C@@H](CCCNC(=N)N)C(=O)c1nc2ccccc2s1` [MM3187, Ac-IQWR-kbt], the IC50 is 129 nM against Factor Xa; 0.32 nM against hepsin; 2.2 nM against TMPRSS2; > 20000 nM against thrombin; 1.2 nM against matriptase; 1450 nM against HGFA. The same molecule returned a concentration for a half-maximal effect (EC50) in experiment [1] of 22 nM.

As to `CC[C@H](C)[C@H](NC(C)=O)C(=O)N[C@@H](CO)C(=O)N[C@@H](Cc1ccccc1)C(=O)N[C@@H](CCCNC(=N)N)C(=O)c1nc2ccccc2s1` [MM4009, Ac-ISFR-kbt], the IC50 was 0.86 nM against hepsin; 0.07 nM against TMPRSS2; > 20000 nM on thrombin; 4.7 nM on matriptase; 182 nM at HGFA. Further, the “H1N1 Fold inhibition @ 0.1 μM” value in experiment [2] is reported as 2. The “H1N1 Fold inhibition @ 1 μM” value in experiment [2] is 3. Also, the “H1N1 Fold inhibition @ 10 μM” value in experiment [2] is reported as 743. In addition, the “H1N1 titer Log fold reduction (1 μM)” value in experiment [2] was determined as 0.62. In addition, in experiment [2], the “H1N1 titer Log fold reduction (10 μM)” value was determined as 3.4. The half-maximal effective concentration (EC50) in experiment [1] was found to be 40 nM.

Consider `CC[C@H](C)[C@H](NC(C)=O)C(=O)N[C@@H](CCC(=O)O)C(=O)N[C@@H](Cc1ccccc1)C(=O)N[C@@H](CCCNC(=N)N)C(=O)c1nc2ccccc2s1` [MM4037, Ac-IEFR-kbt], for which the IC50 was 0.35 nM against hepsin; 0.11 nM against TMPRSS2; > 20000 nM against thrombin; 2.4 nM at matriptase; 276 nM on HGFA. This molecule had an EC50 in experiment [1] of 24 nM.

With `CC[C@H](C)[C@H](NC(C)=O)C(=O)N[C@H](Cc1c[nH]c2ccccc12)C(=O)N[C@@H](Cc1ccccc1)C(=O)N[C@@H](CCCNC(=N)N)C(=O)c1nc2ccccc2s1` [MM4038, Ac-IdWFR-kbt], the IC50 is 12 nM on hepsin; 0.04 nM on TMPRSS2; > 20000 nM against thrombin; 25 nM at matriptase; 66 nM at HGFA. Also, in experiment [2], the “H1N1 titer Log fold reduction (1 μM)” value is given as 2.1. The “H1N1 titer Log fold reduction (10 μM)” value in experiment [2] came out at 3.0. Besides, the response in experiment [1] was half-maximal at 226 nM (EC50).

These data come from paper doi:10.1101/2025.05.09.652710v1 (bioRxiv, 2025).
